Results from ChEMBL document CHEMBL1201862, “PubChem BioAssay data set” (2004).
Calls of active or inactive are those of the source.

Legend:
Protein Rev = Protein Rev (Human immunodeficiency virus type 1 group M subtype B (isolate WMJ22)(HIV-1), UniProt P05866); experiment: inhibitors of Rev protein–RRE RNA complex – biochemical, protein-RNA interaction, dose response (AID 842); set-up: species or system Human immunodeficiency virus 1
[1] = Luminescence Cell-Based Dose Response HTS to Identify Inhibitors of 5'UTR Stem-Loop Driven Prion Protein mRNA Translation in H4 Neuroglioblastoma Cells. [Related pubchem assays: 1827 (Project Summary), 1813 (Primary HTS)]; format: functional
[2] = molecular target: T1, Heat shock factor protein 1 (Mus musculus, UniProt P38532); experiment: decrease of HSF1-responsive luciferase luminescence – cell-based, NIH3T3, dose retest, confirmation (AID 2382); format: functional;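 note: NIH3T3 fibroblasts with HSF1-driven luciferase reporter stressed by proteasome inhibitor MG132; luminescence from HSF1-driven luciferase expression after 8 hours of MG132 stress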
T1 sequence (P38532 whole entry): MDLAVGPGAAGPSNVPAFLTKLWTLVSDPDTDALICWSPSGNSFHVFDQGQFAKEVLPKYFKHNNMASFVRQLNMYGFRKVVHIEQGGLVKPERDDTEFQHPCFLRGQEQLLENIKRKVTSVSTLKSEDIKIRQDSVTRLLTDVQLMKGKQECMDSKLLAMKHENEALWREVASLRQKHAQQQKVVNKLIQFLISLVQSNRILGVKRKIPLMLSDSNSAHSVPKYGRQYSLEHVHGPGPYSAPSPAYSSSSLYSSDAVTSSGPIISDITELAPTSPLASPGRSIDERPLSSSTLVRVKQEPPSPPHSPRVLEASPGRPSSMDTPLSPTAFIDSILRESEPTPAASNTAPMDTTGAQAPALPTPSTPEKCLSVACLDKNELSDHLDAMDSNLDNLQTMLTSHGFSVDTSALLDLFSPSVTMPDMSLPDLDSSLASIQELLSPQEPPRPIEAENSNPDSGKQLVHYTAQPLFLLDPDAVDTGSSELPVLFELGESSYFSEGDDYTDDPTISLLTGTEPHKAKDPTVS

cells = format: functional, cell-based
[3] = molecular target: T2, Luciferin 4-monooxygenase (Photinus pyralis, UniProt P08659); experiment: Counter Screen for Luciferase-based Assay Positives. [Related pubchem assays: 620, 618, 411 ]
[4] = molecular target: T2, Luciferin 4-monooxygenase; experiment: inhibition of purified Photinus pyralis luciferase – biochemical, luminescence, dose response (AID 1891)
[5] = molecular target: T3, Microphthalmia-associated transcription factor (Homo sapiens, UniProt O75030); experiment: reducers of TRPM1 reporter luminescence, concentration series – cell-based, SK-MEL-5, cherry-picked, set 3, MITF inhibitor project, dose response (AID 493073); format: functional;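 note: SK-MEL-5 melanoma cells with luciferase driven by the MITF target TRPM1 promoter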
T3 sequence (O75030 whole entry): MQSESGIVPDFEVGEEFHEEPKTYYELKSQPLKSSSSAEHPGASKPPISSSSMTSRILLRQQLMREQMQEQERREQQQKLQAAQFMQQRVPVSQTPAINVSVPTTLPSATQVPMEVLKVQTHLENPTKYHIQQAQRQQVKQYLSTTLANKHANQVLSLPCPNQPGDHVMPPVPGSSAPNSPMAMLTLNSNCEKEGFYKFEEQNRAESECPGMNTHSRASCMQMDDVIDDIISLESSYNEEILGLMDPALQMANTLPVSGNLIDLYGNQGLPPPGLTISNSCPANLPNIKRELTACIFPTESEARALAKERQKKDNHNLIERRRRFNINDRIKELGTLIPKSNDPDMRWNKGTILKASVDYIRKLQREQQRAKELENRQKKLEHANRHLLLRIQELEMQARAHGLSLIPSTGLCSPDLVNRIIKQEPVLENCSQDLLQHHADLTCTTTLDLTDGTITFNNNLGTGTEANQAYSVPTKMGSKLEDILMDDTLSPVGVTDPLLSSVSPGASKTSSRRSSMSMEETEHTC

[6] = alpha-synuclein stem-loop translation blockers – luminescence, H4 neuroglioblastoma cells, dose confirmation, confirmation (AID 2454); format: functional, cell-based;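 note: H4 neuroglioblastoma cells carrying an alpha-synuclein 5'UTR luciferase reporter; potency for inhibition of the luciferase signal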
HT-1080 = experiment: HT1080 cell viability loss – fluorescence readout (AID 620); format: functional, cell-based; settings: Homo sapiens
[7] = luciferase reporter signal suppression in cells – H4 neuroglioma cells, luminescence, dose response (AID 1990); format: functional, cell-based
[8] = alpha-synuclein stem-loop luciferase translation blockers – H4 neuroglioma cells, luminescence, confirmation (AID 1988); format: functional, cell-based
[9] = Luminescence Cell-Based Dose Confirmation HTS to Identify Inhibitors of Platelet Dense Granule Release. [Related pubchem assays: 1663 (Primary HTS), 1678 (Summary of Project)]; format: functional
A-375 = experiment: proliferation inhibition in MITF-low A375 cells – cell-based, cherry-pick samples, set 2, counter-screen for MITF modulator project, dose response (AID 540335); format: functional; settings: Homo sapiens
HeLa = experiment: viability loss in HeLa cells – cell-based, 24 h, cherry-picked samples, cytotoxicity control, dose response (AID 504726); format: functional; settings: Homo sapiens;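 note: potency for cytotoxicity as loss of luminescence signal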
[10] = viability of PTEN-deleted HCT116 cells – cell-based, HCT116 PTEN knockout, dose response (AID 1047); format: functional;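 note: HCT116 colon tumor cells with PTEN knocked out; cells exposed to compound for 60 hours before readout; potency for loss of cell viability measured by luminescence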
[11] = viability of HCT116 lacking mutant beta-catenin – cell-based, human colon tumor, dose response (AID 1045); format: functional;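 note: HCT116 colon tumor cells with beta catenin knocked out; cells exposed to compound for 60 hours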
[12] = molecular target: T4, Alkaline phosphatase, tissue-nonspecific isozyme (Homo sapiens, UniProt P05186)
T4 sequence (P05186 whole entry): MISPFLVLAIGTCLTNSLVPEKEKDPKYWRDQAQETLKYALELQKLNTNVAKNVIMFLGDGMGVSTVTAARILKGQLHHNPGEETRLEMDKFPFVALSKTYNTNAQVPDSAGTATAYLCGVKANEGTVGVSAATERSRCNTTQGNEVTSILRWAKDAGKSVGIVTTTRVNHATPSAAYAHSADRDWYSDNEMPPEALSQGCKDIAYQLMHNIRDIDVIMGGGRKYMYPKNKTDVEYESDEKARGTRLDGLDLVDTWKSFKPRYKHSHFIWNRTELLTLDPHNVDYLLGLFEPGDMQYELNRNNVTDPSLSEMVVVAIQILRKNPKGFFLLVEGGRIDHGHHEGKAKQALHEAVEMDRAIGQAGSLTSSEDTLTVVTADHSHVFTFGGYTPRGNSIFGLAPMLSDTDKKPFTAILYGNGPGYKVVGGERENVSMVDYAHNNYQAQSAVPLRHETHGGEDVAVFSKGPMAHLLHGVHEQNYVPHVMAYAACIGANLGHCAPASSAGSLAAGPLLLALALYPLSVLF

HEK293 [13] = experiment: PMA/Ionomycin-induced IL-8 production in HEK293- NF-kB-Luc stable cells. [Related pubchem assays: 1299, 1295, 1375, 1287, 1281, 1293, 1291, 1289, 1280, 465, 1364, 1282, 1372, 1365, 1367, 1366, 1266, 1269, 1373, 1292, 1290, 1302, 1371, 1283, 1271, 1294, 1374, 1368, 1369 ]; format: functional, cell-based; settings: Homo sapiens
HEK293 [14] = experiment: TNF Induced NF-kB Luciferase in 293-NF-kB-Luc Stable Cells. [Related pubchem assays: 1266, 1299, 1269, 1373, 1292, 1290, 1302, 1371, 1283, 1270, 1295, 1271, 1375, 1294, 1374, 1281, 1293, 1291, 1289, 1280, 465, 1368, 1364, 1282, 1372, 1365, 1369, 1370, 1367, 1366 ]; format: functional, cell-based; settings: Homo sapiens
[15] = molecular target: T2, Luciferin 4-monooxygenase; experiment: In vitro luciferase assay using purified luciferase. [Related pubchem assays: 1299, 1270, 1295, 1375, 1287, 1281, 1293, 1291, 1289, 1280, 465, 1364, 1282, 1372, 1365, 1370, 1367, 1366, 1266, 1373, 1292, 1290, 1302, 1371, 1283, 1271, 1294, 1374, 1368, 1369 ]
HEK293 [16] = experiment: Cytotoxicity assay in HEK293 cells. [Related pubchem assays (depositor defined):AID1266, AID1269, AID1270, AID1271, AID1280, AID1281, AID1282, AID1283, AID1287, AID1289, AID1290, AID1291, AID1292, AID1293, AID1294, AID1295, AID1299, AID1302, AID1364, AID1365, AID1366, AID1367, AID1369, AID1370, AID1371, AID1372, AID1373, AID1374, AID1375, AID1384 …; format: functional, cell-based; settings: Homo sapiens
HEK293 [17] = experiment: PMA/Ionomycin induced NF-kB luciferase assay in 293- NF-kB-Luc stable cells. [Related pubchem assays: 1299, 1270, 1295, 1375, 1287, 1281, 1293, 1291, 1289, 1280, 465, 1364, 1282, 1372, 1365, 1370, 1367, 1366, 1269, 1373, 1292, 1290, 1302, 1371, 1283, 1271, 1294, 1374, 1368, 1369 ]; format: functional, cell-based; settings: Homo sapiens

T2 sequence (P08659 whole entry): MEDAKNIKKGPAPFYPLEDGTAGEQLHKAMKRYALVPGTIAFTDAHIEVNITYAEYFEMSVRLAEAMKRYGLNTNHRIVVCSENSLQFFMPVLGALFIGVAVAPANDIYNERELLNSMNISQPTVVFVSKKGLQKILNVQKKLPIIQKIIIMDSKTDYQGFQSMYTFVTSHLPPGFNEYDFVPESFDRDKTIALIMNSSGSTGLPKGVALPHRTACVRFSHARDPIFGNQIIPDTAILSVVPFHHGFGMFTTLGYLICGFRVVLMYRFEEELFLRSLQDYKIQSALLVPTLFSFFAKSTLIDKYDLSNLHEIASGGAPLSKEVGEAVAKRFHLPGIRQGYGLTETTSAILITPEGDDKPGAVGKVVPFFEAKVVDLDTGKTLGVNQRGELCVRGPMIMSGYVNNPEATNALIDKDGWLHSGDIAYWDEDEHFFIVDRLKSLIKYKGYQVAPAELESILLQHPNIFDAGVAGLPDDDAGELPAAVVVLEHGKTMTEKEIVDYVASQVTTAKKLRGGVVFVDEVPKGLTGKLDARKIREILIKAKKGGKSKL
Chain of Protein Rev (P05866 whole entry): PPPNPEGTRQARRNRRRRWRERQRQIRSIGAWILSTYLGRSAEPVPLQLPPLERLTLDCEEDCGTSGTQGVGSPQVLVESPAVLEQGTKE

CCOC(=O)c1c(C)n(C)c2ccc(O)c(CN(C)C)c12
IC50 (Protein Rev): > 79.4 µM (not active)

O=C(/C=C\Nc1ccc2c(c1)OCO2)c1ccccn1
EC50 [1]: < 0.1 µM (active)
EC50 [2]: 4.62 µM (active)
EC50 (cells): > 12 µM (inconclusive)
EC50 [3]: 23.4 µM (active)
EC50 [4]: 0.634 µM (active)
AC50 [5]: 2.08 µM (active)
EC50 [6]: 0.874 µM (active)
EC50 (HT-1080): > 50 µM (not active)
EC50 [7]: 0.649 µM (active)
EC50 [8]: 0.234 µM (active)
EC50 [9]: 3.3 µM (active)
AC50 (A-375): 41 µM (active)

Brc1ccc(-c2noc(COc3ccc4c(c3)CCC4)n2)o1
AC50 (HeLa): 337 µM (active)

Cn1c(N/N=C2\CCCc3ccccc32)nc2c1c(=O)n(Cc1ccc(F)cc1)c(=O)n2C
EC50 [10]: 9.86 µM (active)
EC50 [11]: 10.2 µM (active)
EC50 [12]: 18.8 µM (active)

CN(C)c1ncnc2c1ncn2[C@@H]1OC(CO)C(O)C1O (some centres not stated)
EC50 (HEK293 [13]): > 8 µM (not active)
EC50 (HEK293 [14]): > 8 µM (not active)
EC50 [15]: > 8 µM (not active)
EC50 (HEK293 [16]): 12.2 µM (inactive)
EC50 (HEK293 [17]): 1.85 µM (active)
